These results are taken from PubChem BioAssay AID192 (DTP/NCI, 2004).

“And” between values parts separate entries of the source, which are not always exact repeats. Identical values can stand only once. Toxic doses and inconclusive results are not listed.

The subject of the assay is BDF1 mice, B16 melanoma ip, median survival T/C. Nature of the assay: NCI In Vivo Anticancer Drug Screen. Data for tumor model B16 Melanoma (intraperitoneal) in B6D2F1 (BDF1) mice. The note with it: endpoint: median survival time, higher = longer survival. Put shortly:
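In this screen, activity was judged from survival or tumor size in treated versus vehicle-treated tumor-bearing mice, reported as T/C.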

Where [1] appears, read: dose: 50.0 mg/kg/injection, schedule: Q01DX009 (ip), vehicle: saline with Tween-80.
Where [2] appears, read: dose: 100.0 mg/kg/injection, schedule: Q01DX009 (ip), vehicle: saline with Tween-80.
The mark [3] stands for this setting: dose: 25.0 mg/kg/injection, schedule: Q01DX009 (ip), vehicle: saline.
Where [4] appears, read: dose: 25.0 mg/kg/injection, schedule: Q01DX009 (ip), vehicle: saline with Tween-80.
[5] abbreviates: dose: 6.25 mg/kg/injection, schedule: Q01DX009 (ip), vehicle: saline.
[6] abbreviates: dose: 12.5 mg/kg/injection, schedule: Q01DX009 (ip), vehicle: saline.
[7] abbreviates: dose: 100.0 mg/kg/injection, schedule: Q01DX009 (ip), vehicle: Klucel (hydroxypropylcellulose) (HPC).

Consider `Cc1c(N)nc([C@H](CC(N)=O)NC[C@H](N)C(N)=O)nc1C(=O)N[C@H](C(=O)N[C@H](C)[C@@H](O)[C@H](C)C(=O)N[C@H](C(=O)NCCc1nc(-c2nc(C(=O)NCCC[S+](C)C)cs2)cs1)[C@@H](C)O)C(OC1OC(CO)C(O)C(O)C1OC1OC(CO)C(O)C(OC(N)=O)C1O)c1cnc[nH]1` (stereo partly specified), for which the T/C (dose: 1.0 mg/kg/injection, schedule: Q01DX009 (ip), vehicle: clinical formulation) was 114 % of control; the T/C (dose: 2.0 mg/kg/injection, schedule: Q01DX009 (ip), vehicle: clinical formulation) was 121 % of control; the T/C (dose: 3.9 mg/kg/injection, schedule: Q01DX009 (ip), vehicle: saline) is 102 % of control; the T/C (dose: 4.0 mg/kg/injection, schedule: Q01DX009 (ip), vehicle: clinical formulation) was 120 % of control; the T/C (dose: 7.8 mg/kg/injection, schedule: Q01DX009 (ip), vehicle: saline) was 102 % of control; the T/C (dose: 8.0 mg/kg/injection, schedule: Q01DX009 (ip), vehicle: clinical formulation) was 124 % of control. Moreover, the T/C (dose: 15.6 mg/kg/injection, schedule: Q01DX009 (ip), vehicle: saline) was 102 % of control; the T/C (dose: 16.0 mg/kg/injection, schedule: Q01DX009 (ip), vehicle: clinical formulation) was 123 % of control; the T/C (dose: 31.3 mg/kg/injection, schedule: Q01DX009 (ip), vehicle: saline) is 109 % of control.

With `CCOC(=O)C(Cc1ccc(O)cc1)NP(=O)(OCCCl)OCCCl` (stereo unspecified), the T/C is, setting by setting: (dose: 200.0 mg/kg/injection, schedule: Q04DX003 (ip), vehicle: Klucel (hydroxypropylcellulose) (HPC)) 86 % of control; (dose: 400.0 mg/kg/injection, schedule: Q04DX003 (ip), vehicle: Klucel (hydroxypropylcellulose) (HPC)) 91 % of control.

In the case of `CCNc1nc(NCC)nc(OC)n1`, the T/C under setting [1] is 117 % of control; the T/C (dose: 66.0 mg/kg/injection, schedule: Q01DX009 (ip), vehicle: saline with Tween-80) is 93 % of control; the T/C under setting [2] was 95 % of control; the T/C (dose: 150.0 mg/kg/injection, schedule: Q01DX009 (ip), vehicle: saline with Tween-80) was 93 % of control; the T/C (dose: 200.0 mg/kg/injection, schedule: Q01DX009 (ip), vehicle: saline with Tween-80) is 105 % of control.

For the compound `CCN(CC)CCSC(=O)C(O)(c1ccccc1)C1CCCC1` (stereo unspecified), the T/C under setting [3] is 124 % of control.

Regarding `Cc1cc2nc(CBr)c(CBr)nc2cc1C`, the T/C reads like this: (dose: 0.1 mg/kg/injection, schedule: Q01DX009 (ip), vehicle: saline with Tween-80) 86 % of control; (dose: 0.2 mg/kg/injection, schedule: Q01DX009 (ip), vehicle: saline with Tween-80) 86 % of control; (dose: 0.4 mg/kg/injection, schedule: Q01DX009 (ip), vehicle: saline with Tween-80) 92 % of control; (dose: 0.75 mg/kg/injection, schedule: Q01DX009 (ip), vehicle: saline with Tween-80) 107 % of control; (dose: 0.8 mg/kg/injection, schedule: Q01DX009 (ip), vehicle: saline with Tween-80) 94 % of control; (dose: 1.5 mg/kg/injection, schedule: Q01DX009 (ip), vehicle: saline with Tween-80) 97 % of control. Moreover, the T/C reads like this: (dose: 3.0 mg/kg/injection, schedule: Q01DX009 (ip), vehicle: saline with Tween-80) 97 % of control; (dose: 6.0 mg/kg/injection, schedule: Q01DX009 (ip), vehicle: saline with Tween-80) 89 % of control.

For the compound `Cc1ccc(NC(=O)Nc2cccc(C(F)(F)F)c2)cc1NC(=O)Nc1cccc(C(F)(F)F)c1`, the T/C under setting [4] was 103 % of control, the T/C under setting [1] is 91 % of control and the T/C under setting [2] was 96 % of control.

In the case of `CN(C)CC/C=C1\c2ccccc2C(C)(C)c2ccc(Cl)cc21`, the T/C is 118 % of control under setting [4] and 92 % of control under setting [1].

On to `CC(C)=CC(=O)OCC[N+](C)(C)C`, for which the T/C runs as follows: (dose: 1.56 mg/kg/injection, schedule: Q01DX009 (ip), vehicle: saline) 114 % of control; (dose: 3.12 mg/kg/injection, schedule: Q01DX009 (ip), vehicle: saline) 112 % of control; under setting [5], 104 % of control; under setting [6], 102 % of control; under setting [3], 101 % of control.

For `COC1C=CC23c4cc5c(cc4C(O)OC2CN(C)C3C1)OCO5` (stereo unspecified), the T/C is 101 % of control and 109 % of control under setting [5]; 98 % of control and 108 % of control under setting [6]; 112 % of control and 116 % of control under setting [3]; 112 % of control (dose: 50.0 mg/kg/injection, schedule: Q01DX009 (ip), vehicle: saline).

In the case of `CCC[CH2][Sn]1([CH2]CCC)[N](S(=O)(=O)c2ccc(C)cc2)c2ccccc2[N]1S(=O)(=O)c1ccc(C)cc1`, the T/C by setting is: (dose: 1.5 mg/kg/injection, schedule: Q01DX009 (ip), vehicle: Klucel (hydroxypropylcellulose) (HPC)) 87 % of control; (dose: 3.0 mg/kg/injection, schedule: Q01DX009 (ip), vehicle: Klucel (hydroxypropylcellulose) (HPC)) 102 % of control.

As to `CCOC(=O)CCC(NC(=O)c1ccc(NCc2ccc3nc(N)nc(N)c3c2C)cc1)C(=O)OCC` (stereo unspecified), the T/C is, setting by setting: (dose: 0.01 mg/kg/injection, schedule: Q01DX009 (ip), vehicle: saline + alcohol) 108 % of control; (dose: 0.02 mg/kg/injection, schedule: Q01DX009 (ip), vehicle: saline + alcohol) 102 % of control; (dose: 0.03 mg/kg/injection, schedule: Q01DX009 (ip), vehicle: saline + alcohol) 105 % of control; (dose: 0.06 mg/kg/injection, schedule: Q01DX009 (ip), vehicle: saline + alcohol) 93 % of control; (dose: 0.11 mg/kg/injection, schedule: Q01DX009 (ip), vehicle: saline + alcohol) 91 % of control.

With `O=c1[nH]/c(=C\c2ccc3c(c2)OCO3)c(=O)[nH]/c1=C\c1ccc2c(c1)OCO2`, the T/C by setting is: (dose: 12.5 mg/kg/injection, schedule: Q01DX009 (ip), vehicle: carboxymethylcellulose (CMC)) 113 % of control; (dose: 25.0 mg/kg/injection, schedule: Q01DX009 (ip), vehicle: carboxymethylcellulose (CMC)) 100 % of control; (dose: 50.0 mg/kg/injection, schedule: Q01DX009 (ip), vehicle: carboxymethylcellulose (CMC)) 106 % of control; under setting [7], 86 % of control.

`CC1(C)N=C(N)N=C(N)N1c1ccc(OCCOc2ccc(S(=O)(=O)F)cc2)c(Cl)c1`: the T/C is, setting by setting: (dose: 12.5 mg/kg/injection, schedule: Q04DX003 (ip), vehicle: saline) 107 % of control; (dose: 25.0 mg/kg/injection, schedule: Q04DX003 (ip), vehicle: saline) 121 % of control.

As to `COC(=O)c1n[nH]c(C(C)C)c1N=NN(C)C`, the T/C (dose: 37.5 mg/kg/injection, schedule: Q01DX009 (ip), vehicle: saline with Tween-80) was 110 % of control and the T/C (dose: 75.0 mg/kg/injection, schedule: Q01DX009 (ip), vehicle: saline with Tween-80) was 115 % of control.

As to `CNCCOc1ccc(Cl)cc1`, the T/C is 103 % of control under setting [4], 98 % of control under setting [1] and 101 % of control under setting [2].

Take `CC(NC(=O)C1CCCN1C(=O)OCc1ccccc1)C(=O)O` (stereo unspecified): the T/C under setting [1] was 91 % of control and the T/C under setting [2] was 90 % of control.

Regarding `O=NN(CCCl)C(=O)NCC1CCC(CNC(=O)N(CCCl)N=O)CC1` (stereo unspecified), the T/C (dose: 17.0 mg/kg/injection, schedule: Q01DX009 (ip), vehicle: saline) was 122 % of control; the T/C (dose: 33.0 mg/kg/injection, schedule: Q01DX009 (ip), vehicle: saline) is 152 % of control; the T/C (dose: 65.0 mg/kg/injection, schedule: Q01DX009 (ip), vehicle: saline) was 184 % of control; the T/C (dose: 130.0 mg/kg/injection, schedule: Q01DX009 (ip), vehicle: saline) is 193 % of control.

Turning to `C[n+]1cccc(O)c1`, the T/C by setting is: (dose: 100.0 mg/kg/injection, schedule: Q04DX003 (ip), vehicle: saline) 95 % of control; (dose: 200.0 mg/kg/injection, schedule: Q04DX003 (ip), vehicle: saline) 97 % of control; (dose: 400.0 mg/kg/injection, schedule: Q04DX003 (ip), vehicle: saline) 102 % of control.

For the compound `O=C(CN1CCCCC1)Nc1cccc(C(F)(F)F)c1`, the T/C under setting [7] was 87 % of control and the T/C (dose: 200.0 mg/kg/injection, schedule: Q01DX009 (ip), vehicle: Klucel (hydroxypropylcellulose) (HPC)) is 89 % of control.

For `CCCCCCC#CC(=O)OC`, the T/C was 110 % of control (dose: 12.5 mg/kg/injection, schedule: Q01DX009 (ip), vehicle: saline with Tween-80); 93 % of control under setting [4]; 97 % of control and 100 % of control under setting [1].
